ChEMBL document CHEMBL1201862, “PubChem BioAssay data set” (2004)
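Growth conditions: 96-well plates. Treatment: test compound, 48 hours, 5 concentrations. Analysis: linear interpolation between bracketing concentrations; unreached endpoints set to highest concentration. GI50 = concentration required for 50% inhibition of growth.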 Active and inactive are the calls of the source. Cut-off read from the data, not from the text of the source: active = GI50 up to about 1.1 µM and inactive = higher. Non-standard residues stand in square brackets, D forms with d. Residues, ends and D or L forms follow the SMILES beside them. *: point of attachment. Benzoyl(4-OMe) = COc1ccc(C(=O)*)cc1; 2Thi = N[CH](Cc1cccs1)C(=O)O

Experiments:
Test in all cases: NCI anticancer screen, dose series, 48 h
EKVX = system: EKVX
NCI/ADR-RES = system: NCI/ADR-RES
HT-29 = system: HT-29
NCI-H460 = system: NCI-H460
MDA-N = system: MDA-N
A549 = system: A549
MCF7 = system: MCF7
K562 = system: K562
SK-MEL-5 = system: SK-MEL-5
UO-31 = system: UO-31
HCC 2998 = system: HCC 2998
SF-268 = system: SF-268
SN12C = system: SN12C
SF-295 = system: SF-295
TK-10 = system: TK-10
KM12 = system: KM12
MOLT-4 = system: MOLT-4
COLO 205 = system: COLO 205
M14 = system: M14
SK-MEL-2 = system: SK-MEL-2

Measured: GI50

CCCc1cc(=O)oc2c3c(c4c(c12)OC(C)(C)C=C4)O[C@@H](C)[C@H](C)C3=O
inactive: EKVX 12.2 µM | NCI/ADR-RES 12.5 µM | HT-29 8.71 µM | NCI-H460 15.8 µM | MDA-N 17.3 µM | A549 8.83 µM | MCF7 17.6 µM | K562 6.46 µM | SK-MEL-5 15.8 µM | UO-31 15.8 µM | HCC 2998 15.3 µM | SF-268 17.1 µM | SN12C 18.7 µM | SF-295 16.6 µM | TK-10 20.7 µM | KM12 13.6 µM | MOLT-4 6.61 µM | COLO 205 18.6 µM

c1ccc2c(c1)CC1COc3ccccc3C1O2 (stereo unspecified)
inactive: EKVX 48.3 µM | NCI/ADR-RES 47.8 µM | HT-29 33.4 µM | M14 > 100 µM | MDA-N 38 µM | A549 50.1 µM | MCF7 45.2 µM | K562 > 100 µM | SK-MEL-5 17.4 µM | UO-31 51.1 µM | HCC 2998 42.3 µM | SF-268 > 100 µM | SN12C 67.5 µM | SK-MEL-2 44.6 µM | SF-295 64.4 µM | TK-10 95.5 µM | KM12 44.2 µM | MOLT-4 30.3 µM | COLO 205 > 100 µM

CC(=O)NC(Cc1c[nH]cn1)C(=O)N1CCCC1C(N)=O (stereo unspecified)
inactive: EKVX > 100 µM | NCI/ADR-RES > 100 µM | HT-29 > 100 µM | NCI-H460 > 100 µM | M14 > 100 µM | MDA-N > 100 µM | A549 > 100 µM | MCF7 > 100 µM | K562 > 100 µM | SK-MEL-5 > 100 µM | UO-31 > 100 µM | HCC 2998 > 100 µM | SF-268 > 100 µM | SN12C > 100 µM | SF-295 > 100 µM | TK-10 > 100 µM | KM12 > 100 µM | MOLT-4 > 100 µM | COLO 205 > 100 µM

CN(C)/C=N\c1nncc2[nH]cnc12
inactive: EKVX > 100 µM | NCI/ADR-RES > 100 µM | HT-29 > 100 µM | M14 55.8 µM | MDA-N 79.8 µM | A549 > 100 µM | MCF7 > 100 µM | K562 43.6 µM | SK-MEL-5 > 100 µM | UO-31 98.6 µM | HCC 2998 > 100 µM | SN12C > 100 µM | SK-MEL-2 > 100 µM | SF-295 > 100 µM | TK-10 73.6 µM | KM12 > 100 µM | MOLT-4 77.6 µM | COLO 205 > 100 µM

O=C(NCCCl)NCc1ccccc1
inactive: EKVX > 100 µM | NCI/ADR-RES > 100 µM | HT-29 > 100 µM | NCI-H460 52.5 µM | MDA-N > 100 µM | A549 > 100 µM | MCF7 > 100 µM | K562 > 100 µM | SK-MEL-5 > 100 µM | UO-31 > 100 µM | HCC 2998 > 100 µM | SF-268 > 100 µM | SN12C > 100 µM | SK-MEL-2 > 100 µM | SF-295 > 100 µM | KM12 > 100 µM | MOLT-4 > 100 µM | COLO 205 > 100 µM

CC(=O)OC12c3ccccc3C(c3ccccc31)C1C(=O)N(c3ccccc3O)C(=O)C12 (stereo unspecified)
inactive: EKVX > 100 µM | NCI/ADR-RES > 100 µM | HT-29 70.5 µM | NCI-H460 > 100 µM | M14 > 100 µM | MDA-N > 100 µM | A549 > 100 µM | MCF7 > 100 µM | K562 > 100 µM | SK-MEL-5 > 100 µM | UO-31 50.4 µM | HCC 2998 > 100 µM | SF-268 80.5 µM | SN12C > 100 µM | SF-295 80.2 µM | TK-10 > 100 µM | KM12 92.7 µM | MOLT-4 > 100 µM | COLO 205 > 100 µM

COc1ccc(C2C3=C(COC3=O)Oc3cc4c(cc32)OCO4)c(OC)c1 (stereo unspecified)
inactive: EKVX 48.5 µM | NCI/ADR-RES 10 µM | HT-29 6.65 µM | NCI-H460 17.4 µM | M14 15 µM | MDA-N 2.09 µM | A549 10.9 µM | MCF7 6.89 µM | K562 4.3 µM | SK-MEL-5 10.7 µM | UO-31 16.3 µM | HCC 2998 20.8 µM | SF-268 34 µM | SN12C 6.75 µM | SF-295 5.77 µM | TK-10 62.1 µM | KM12 5.19 µM | MOLT-4 4.28 µM | COLO 205 7 µM

COc1cc(COC(=O)N2CC=CC2C(=O)O)c([N+](=O)[O-])cc1OC (stereo unspecified)
inactive: EKVX > 100 µM | NCI/ADR-RES > 100 µM | HT-29 > 100 µM | NCI-H460 > 100 µM | M14 > 100 µM | MDA-N > 100 µM | A549 > 100 µM | MCF7 > 100 µM | K562 > 100 µM | SK-MEL-5 > 100 µM | UO-31 > 100 µM | HCC 2998 > 100 µM | SF-268 > 100 µM | SN12C > 100 µM | SF-295 > 100 µM | TK-10 > 100 µM | KM12 > 100 µM | MOLT-4 > 100 µM | COLO 205 > 100 µM

N#CC(=S)Nc1ccc(Cl)c(Cl)c1
inactive: EKVX 22.9 µM | NCI/ADR-RES 26.3 µM | HT-29 21.1 µM | M14 24.6 µM | MDA-N 32.7 µM | A549 24 µM | MCF7 35.5 µM | K562 11.7 µM | SK-MEL-5 22.2 µM | HCC 2998 18.7 µM | SF-268 37.4 µM | SN12C 30.5 µM | SK-MEL-2 27.7 µM | SF-295 22.5 µM | TK-10 26.5 µM | KM12 26.9 µM | MOLT-4 17.3 µM | COLO 205 20.6 µM

CCC(C)C(NC(=O)C(Cc1cccs1)NC(=O)C(CC(C)C)NC(=O)C(CC(C)C)NC(=O)C(CCCCN)NC(=O)C(CCCNC(=N)N)NC(=O)c1ccc(OC)cc1)C(=O)NC(CC(C)C)C(N)=O (stereo unspecified) ({Benzoyl(4-OMe)}-RKLL[2Thi]IL-NH2; configuration not given here)
inactive: EKVX > 100 µM | NCI/ADR-RES > 100 µM | HT-29 > 100 µM | NCI-H460 > 100 µM | M14 > 100 µM | MDA-N > 100 µM | A549 > 100 µM | MCF7 > 100 µM | K562 > 100 µM | SK-MEL-5 > 100 µM | UO-31 > 100 µM | HCC 2998 > 100 µM | SF-268 > 100 µM | SN12C > 100 µM | SF-295 > 100 µM | TK-10 > 100 µM | KM12 > 100 µM | MOLT-4 > 100 µM | COLO 205 > 100 µM
